Experimental data taken from publication PMC4535766, “Antiprotozoal Activity Profiling of Approved Drugs: A Starting Point toward Drug Repositioning” (PLoS ONE, 2015).
Structures can show the parent of a compound that is named as a salt. Where two headings read alike, the source gives them in different places.

Assays:
[1] = test system: T. b. rhodesiense strain STIB 900, trypomastigotes; experiment: In vitro activity against T. b. rhodesiense, serial drug dilution assay; details: for IC50: Trypanosoma brucei
Protocol: (§1) Drug stock solutions (10mg/ml) were in DMSO (100%). […] Selectivity index (SI) was calculated as IC50 L6 cells/IC50 parasite.

[2] = Cytotoxicity on macrophages infected with L. donovani; type: cell-based, mouse; details: mouse
[3] = test system: axenic amastigotes of L. donovani, strain MHOM-ET-67/L82; experiment: In vitro activity against L. donovani axenic amastigotes, serial drug dilution assay; type: cell-based, Leishmania donovani; details: Leishmania donovani
Protocol: as §1

[4] = test system: P. falciparum strain K1; experiment: In vitro activity against P. falciparum, serial drug dilution assay; details: for IC50: Plasmodium falciparum; for selectivity ratio: rat
Protocol: as §1

[5] = in vitro; details: rat
Protocol: as §1

[6] = test system: T. cruzi, strain Tulahuen C4, intracellular amastigotes; experiment: microbe, parasite or virus in culture; details: Trypanosoma cruzi, TULAHUEN
Protocol: as §1

[7] = test system: intracellular amastigotes of L. donovani strain MHOM-ET-67/L82; experiment: Activity against Leishmania donovani intracellular amastigotes in mouse peritoneal macrophages; details: Leishmania donovani, Peritoneal macrophage, in Mus musculus
Protocol: After 24 h 1.2 x 10^5 amastigote L. donovani in 100 μl were added. The amastigotes were taken from an axenic culture grown at pH 5.4. Four hours later, the medium containing free amastigote forms was removed and replaced by fresh medium. The next day the medium was replaced by medium with or without a serial drug dilution of seven 3-fold dilution steps covering a range from 30 to 0.04 μg/ml. Parasite growth in the presence of the drug was compared to control wells. After 96 h of incubation, the medium was removed and the slides fixed with methanol for 10 min followed by staining with a 10% Giemsa solution. Infected and non-infected macrophages were counted for the control cultures and those exposed to the serial drug dilutions. The infection rates were determined. The results were expressed as a percentage reduction in parasite burden compared to control wells, and the IC50 was calculated by linear regression analysis. The collection of mouse peritoneal macrophages was done at the Swiss Tropical and Public Health Institute (Basel) according to the rules and regulations for the protection of animal rights ("Tierschutzverordnung") of the Swiss "Bundesamt für Veterinärwesen".

[8] = macrophages infected with L. donovani, read-out: IC50 Cytotox. mac.inf.
[9] = axenic amastigotes, strain MHOM-ET-67/L82, means of two independent assays, read-out: IC50 L. don. axen.
[10] = 96 h, read-out: IC50 L. don. intracell
[11] = infected macrophages, read-out: Cytotox. mac.inf. IC50
[12] = L. donovani axenic amastigotes, read-out: L. don. axen. IC50
[13] = Selectivity index: IC50 Cytotoxicity L6/ IC50 P. falciparum
[14] = read-out: L. don. intracell IC50
[15] = mouse peritoneal macrophages infected with L. donovani, macrophages infected with L. donovani, read-out: IC50 Cytotox. mac.inf.
[16] = L6 cells, IC50 Cytotox. L6, L6 cells, means of two independent assays

## CCC[C@@H]1C[C@@H](C(=O)N[C@@H]([C@H]2O[C@H](SC)[C@H](O)[C@@H](O)[C@H]2O)[C@@H](C)O)N(C)C1 [Lincomycin]
[1]; read-out: IC50 T. b. rhod.
  IC50: > 221 µM
[2]; [8]
  IC50 at 96 h: > 73.8 µM
[3]; [9]
  IC50: > 221 µM
[4]; K1, read-out: IC50 P. falc. K1
  IC50: 7.08 µM
[5]; IC50 Cytotox. L6
  IC50: > 221 µM
[6]; read-out: IC50 T. cruzi
  IC50: > 221 µM
[7]; [10]
  IC50: > 73.8 µM

## CO[C@H]1/C=C/O[C@@]2(C)Oc3c(C)c(O)c4c(O)c(c5c(nc6cc(C)ccn65)c4c3C2=O)NC(=O)/C(C)=C\C=C\[C@H](C)[C@H](O)[C@@H](C)[C@@H](O)[C@@H](C)[C@H](OC(C)=O)[C@@H]1C [Rifaximin]
[1]; read-out: T. b. rhod. IC50
  IC50: 17.1 µM
[1]; in vitro
  Activity against T. b. rhodesiense (in words): devoid of antitrypanosomal activity
[2]; [11]
  IC50 at 96 h: > 38.2 µM
[3]; [12]
  IC50: 15 µM
[4]; K1, read-out: IC50 P. falc. K1
  IC50: 0.92 µM
[4]; [13]
  selectivity ratio: 96
[5]; IC50 Cytotox. L6
  IC50: 88 µM
[6]; read-out: T. cruzi IC50
  IC50: 40.2 µM
[7]; [14]
  IC50: > 38.2 µM

## C#C[C@]1(O)CC[C@H]2[C@@H]3CCC4=Cc5oncc5C[C@]4(C)[C@H]3CC[C@@]21C [Danazol]
[1]; read-out: T. b. rhod. IC50
  IC50: 45.9 µM
[2]; [11]
  IC50 at 96 h: > 29.6 µM
[3]; [12]
  IC50: 10.2 µM
[4]; K1, read-out: P. falc. IC50
  IC50: 14.1 µM
[5]; Cytotox. L6 IC50
  IC50: 32 µM
[6]; read-out: T. cruzi IC50
  IC50: 6.25 µM
[7]; [14]
  IC50: > 29.6 µM

## CN1CCC(=C2c3ccccc3CC(=O)c3sccc32)CC1 [Ketotifen]
[1]; read-out: IC50 T. b. rhod.
  IC50: 15.2 µM
[2]; [15]
  IC50 at 96 h: > 97 µM
[3]; [9]
  IC50: > 291 µM
[4]; K1, read-out: IC50 P. falc. K1
  IC50: 0.75 µM
[4]; in vitro
  Activity against P. falciparum (in words): selective activities
[4]; [13]
  selectivity ratio: 196
[5]; [16]
  IC50: 147 µM
[6]; read-out: IC50 T. cruzi
  IC50: 141 µM
[7]; [10]
  IC50: > 97 µM

## Cc1cn([C@H]2C[C@H](N=[N+]=[N-])[C@@H](CO)O2)c(=O)[nH]c1=O [Zidovudine]
[1]; read-out: IC50 T. b. rhod.
  IC50: 140 µM
[2]; [8]
  IC50 at 96 h: > 112 µM
[3]; [9]
  IC50: > 374 µM
[4]; K1, read-out: IC50 P. falc. K1
  IC50: 175 µM
[5]; IC50 Cytotox. L6
  IC50: 207 µM
[6]; read-out: IC50 T. cruzi
  IC50: 156 µM
[7]; [10]
  IC50: > 112 µM

## Nc1ccc(S(=O)(=O)c2ccc(N)cc2)cc1 [Dapsone]
[1]; read-out: IC50 T. b. rhod.
  IC50: 353 µM
[2]; [8]
  IC50 at 96 h: > 121 µM
[3]; [9]
  IC50: > 403 µM
[4]; K1, read-out: IC50 P. falc. K1
  IC50: 168 µM
[5]; IC50 Cytotox. L6
  IC50: 204 µM
[6]; read-out: IC50 T. cruzi
  IC50: 220 µM
[7]; [10]
  IC50: > 121 µM

## CN(C)c1ccc(O)c2c1C[C@H]1C[C@H]3[C@H](N(C)C)C(O)=C(C(N)=O)C(=O)[C@@]3(O)C(O)=C1C2=O [Minocycline]
[1]; read-out: T. b. rhod. IC50
  IC50: 36.6 µM
[2]; [11]
  IC50 at 96 h: > 21.9 µM
[3]; [12]
  IC50: 45.7 µM
[4]; K1, read-out: P. falc. IC50
  IC50: 3.58 µM
[5]; Cytotox. L6 IC50
  IC50: 9.42 µM
[6]; read-out: T. cruzi IC50
  IC50: 22.3 µM
[7]; [14]
  IC50: > 21.9 µM

## Nc1nc(O)c2ncn(COC(CO)CO)c2n1 [Ganciclovir]
[1]; read-out: IC50 T. b. rhod.
  IC50: 252 µM
[2]; [8]
  IC50 at 96 h: > 118 µM
[3]; [9]
  IC50: > 392 µM
[4]; K1, read-out: IC50 P. falc. K1
  IC50: > 196 µM
[5]; IC50 Cytotox. L6
  IC50: 179 µM
[6]; read-out: IC50 T. cruzi
  IC50: 240 µM
[7]; [10]
  IC50: > 118 µM

## CNCCC=C1c2ccccc2CCc2ccccc21 [Nortryptyline]
[1]; read-out: IC50 T. b. rhod.
  IC50: 1.17 µM
[1]; rat
  Selectivity index: IC50 Cytotoxicity L6/ IC50 T. b. rhodesiense: 24
[1]; rat, Selectivity index: IC50 Cytotoxicity L6/ IC50 T. b. rhodesiense
  selectivity ratio: > 20
[2]; [8]
  IC50 at 96 h: 38 µM
[3]; [9]
  IC50: > 342 µM
[4]; K1, read-out: IC50 P. falc. K1
  IC50: 0.58 µM
[4]
  selectivity ratio: 48
[5]
  IC50: 27.9 µM
[6]; read-out: IC50 T. cruzi
  IC50: 22.9 µM
[7]; [10]
  IC50: > 11.4 µM

## c1ccc(-c2ccc(C(c3ccccc3)n3ccnc3)cc2)cc1 (stereo not shown) [Bifonazole]
[1]; read-out: IC50 T. b. rhod.
  IC50: 26.8 µM
[2]; [8]
  IC50 at 96 h: > 32.2 µM
[3]; [9]
  IC50: 5.48 µM
[4]; K1, read-out: IC50 P. falc. K1
  IC50: 3.18 µM
[5]; IC50 Cytotox. L6
  IC50: 39.3 µM
[6]; read-out: IC50 T. cruzi
  IC50: 0.003 µM
[7]; [10]
  IC50: > 32.2 µM

## CN(C)CCCN1c2ccccc2Sc2ccccc21 [Promazine]
[1]; read-out: IC50 T. b. rhod.
  IC50: 2.16 µM
[1]; rat, L6 cells versus T. b. rhodesiense STIB 900 trypomastigotes
  selectivity ratio: 14
[2]; [8]
  IC50 at 96 h: > 35.2 µM
[3]; [9]
  IC50: > 316 µM
[4]; K1, read-out: IC50 P. falc. K1
  IC50: 0.49 µM
[4]; L6 cells versus P. falciparum K1, Selectivity index: IC50 Cytotoxicity L6/ IC50 P. falciparum
  selectivity ratio: 61
[5]; [16]
  IC50: 30.1 µM
[6]; read-out: IC50 T. cruzi
  IC50: 49.1 µM
[7]; [10]
  IC50: > 35.2 µM

## Cc1oncc1C(=O)Nc1ccc(C(F)(F)F)cc1 [Leflunomide]
[1]; read-out: IC50 T. b. rhod.
  IC50: 213 µM
[2]; [8]
  IC50 at 96 h: > 111 µM
[3]; [9]
  IC50: 21.8 µM
[4]; K1, read-out: IC50 P. falc. K1
  IC50: > 18.5 µM
[5]; IC50 Cytotox. L6
  IC50: 124 µM
[6]; read-out: IC50 T. cruzi
  IC50: 152 µM
[7]; [10]
  IC50: > 111 µM

## CN(C/C=C/C#CC(C)(C)C)Cc1cccc2ccccc12 [Terbinafine (Hydrochloride), Terbinafine]
[1]; read-out: IC50 T. b. rhod.
  IC50: 95.2 µM
[2]; [15]
  IC50 at 96 h: > 91.5 µM
[3]; [9]
  IC50: 23 µM
[4]; K1, read-out: IC50 P. falc. K1
  IC50: 7.72 µM
[5]; [16]
  IC50: 47 µM
[6]; read-out: IC50 T. cruzi
  IC50: 40.9 µM
[7]; [10]
  IC50: 69.5 µM
